Test results reported in US5663145A, “Products for administering an initial high dose of Cetrorelix and producing a combination package for use when treating diseases” (ASTA Medica Aktiengesellschaft, priority 1993, dated 1997).
Non-standard residues stand in square brackets, D forms with d. Residues, ends and D or L forms follow the SMILES beside them. dPhe(4-Cl) = N[C@H](Cc1ccc(Cl)cc1)C(=O)O; d2Nal = N[C@H](Cc1ccc2ccccc2c1)C(=O)O; dCit = NC(=O)NCCC[C@@H](N)C(=O)O; d3Pal = N[C@H](Cc1cccnc1)C(=O)O

Key:
hormone concentration = assay: clinical trials, daily dose of 10 mg, suppression of hormone concentration; type: in vivo, human; settings: daily dose of 10 mg
Description: This high daily dose cannot be applied in slow-release forms which are intended to act over a long period of time, for example several months. The depot injected under the skin would be too voluminous and would no longer be acceptable. Therefore there is the object of providing a product for reliable and acceptable application.

[1] = tested on: DMBA-induced mammary cancers; assay: DMBA-induced mammary cancers in rats; type: in vivo; settings: initial high dose and a further dose which is not active when administered on its own
LH, FSH and testosterone = assay: trial in humans over three weeks, initial dose plus maintenance doses, suppression of LH, FSH and testosterone; type: in vivo
Protocol: This surprising observation in animals was also confirmed in humans. […] The trial was performed over three weeks.

CC(=O)N[C@H](Cc1ccc2ccccc2c1)C(=O)N[C@H](Cc1ccc(Cl)cc1)C(=O)N[C@H](Cc1cccnc1)C(=O)N[C@@H](CO)C(=O)N[C@@H](Cc1ccc(O)cc1)C(=O)N[C@H](CCCNC(N)=O)C(=O)N[C@@H](CC(C)C)C(=O)N[C@@H](CCCNC(=N)N)C(=O)N1CCC[C@H]1C(=O)N[C@H](C)C(N)=O [Cetrorelix] (Ac-[d2Nal][dPhe(4-Cl)][d3Pal]SY[dCit]LRP[dA]-NH2)
suppression of the hormone concentration (hormone concentration): complete suppression of the hormone concentration to castration level
treatment of DMBA-induced mammary cancers [1]: successful treatment
suppression of LH, FSH and testosterone under maintenance doses after initial dose (LH, FSH and testosterone; after 10 mg initial dose, maintenance 1 mg every 12 hours, 2 mg every 24 hours or 1 mg every 24 hours, three weeks): suppression of LH, FSH and testosterone was maintained
suppression of LH, FSH and testosterone after initial dose (LH, FSH and testosterone; injection of an initial dose of 10 mg): led to suppression of LH, FSH and testosterone
suppression of LH, FSH and testosterone with maintenance doses on their own (LH, FSH and testosterone; maintenance doses (1 mg every 12 hours, 2 mg every 24 hours, 1 mg every 24 hours) applied on their own, no initial dose): suppression of LH, FSH and testosterone is not achieved
